Patent US20250163072A1, “MACROCYCLIC COMPOUNDS FOR THE TREATMENT OF CANCER” (Hoffmann-La Roche Inc., priority 2021, published 2025)

What was measured:
[1] = tested on: SW620 cells; test: Cell viability assay, SW620; type: cell-based, human; conditions: Homo sapiens, SW-620, SW620, 72 hours, Cell Counting Kit-8, read-out: G12V IC50
Method: (§1) The purpose of this cellular assay was to determine the effects of test compounds on the proliferation of human cancer cell lines NCI-H358 (ATCC-CRL5807) cells, AGS (ATCC-CRL-1739) cells, SW620 (ATCC-CCL-227) over a 3-day treatment period by quantifying the amount of NADPH present at endpoint using Cell Counting Kit-8. Cells were seeded at 5,000 cells/well (NCI-H358), 2,000 cells/well (AGS) 2,000 cells/well (SW620) in 96-well assay plates (Corning-3699) and incubated overnight. On the day of the assay, diluted compounds were then added in a final concentration of 0.5% DMSO. After 72 hours incubation, a tenth of the volume of cell counting kit 8(Dnjindo-CK04) was added into each well. Read the signal (OD450 minus OD650) using EnVision after 2 hours incubation. IC50 was determined by fitting a 4-parameter sigmoidal concentration response model.

[2] = tested on: NCI-H358 cells; test: Cell viability assay, NCI-H358; type: cell-based, human; conditions: Homo sapiens, NCI-H358, 72 hours, Cell Counting Kit-8, read-out: G12C IC50
Method: as §1

[3] = target: KRAS G12V binding to BRAF (Homo sapiens (Human), UniProt P01116+P62937, G12V); test: KRAS-BRAF with CYPA (50 nM) interaction assay (TR-FRET), G12V; conditions: GMPPNP loaded 6His-KRAS, GST-BRAF RBD
Sequence of KRAS G12V binding to BRAF (P01116-2 other isoform, or with tags, fused parts or gaps G12V): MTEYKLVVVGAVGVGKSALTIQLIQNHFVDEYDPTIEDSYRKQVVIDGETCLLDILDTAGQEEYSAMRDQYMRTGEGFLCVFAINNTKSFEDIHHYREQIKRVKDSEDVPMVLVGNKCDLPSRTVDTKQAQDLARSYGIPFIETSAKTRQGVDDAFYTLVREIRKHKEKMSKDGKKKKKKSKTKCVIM
Sequence of KRAS G12V binding to BRAF (P62937 whole entry): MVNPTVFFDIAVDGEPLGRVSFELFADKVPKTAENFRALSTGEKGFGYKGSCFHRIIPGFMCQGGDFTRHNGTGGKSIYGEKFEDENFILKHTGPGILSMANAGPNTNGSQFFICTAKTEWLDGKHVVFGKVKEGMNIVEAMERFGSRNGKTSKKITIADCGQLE
Method: (§2) In this example, TR-FRET was also used to measure the compound or compound-CYPA dependent disruption of the KRAS G12C-BRAF complex. This protocol was also used to measure disruption of KRAS G12D or KRAS G12V binding to BRAF by a compound of the invention, respectively. In assay buffer containing 25 mM HEPES PH=7.4 (4-(2-hydroxyethyl)-1-piperazineethanesulfonic acid, Thermo, 15630080), 0.002% Tween20, 0.1% BSA, 100 mM NaCl, 5 mM MgCl2, 10 μM GMPPNP (Guanosine 5'-[β,γ-imido]triphosphate trisodium salt hydrate, Sigma, G0635), tagless CYPA, GMPPNP loaded 6His-KRAS proteins, and GST-BRAF^RBD were mixed in a well of a 384-well assay plate at final concentrations of 50 nM, 6.25 nM and 1 nM, respectively. Compound was present in plate wells as a 16-point 3-fold dilution series starting at a final concentration of 10 μM and incubated for 3 hours. A mixture of MAb Anti-6His-XL665 (Cisbio, 61HISXLB) and Mab anti-GST-TB cryptate (Cisbio, 61GSTTLB) was then added at a final concentration of 6.67 nM and 0.21 nM, respectively, and the plate was incubated for an additional 1.5 hours. TR-FRET signal was read on a […] microplate reader (Ex320 nm, Em 665/615 nm). Compounds that facilitate disruption of the KRAS-BRAF complex were identified as those eliciting a decrease in the TR-FRET ratio relative to DMSO control wells.

[4] = tested on: KRAS G12C in NCI-H358 cells; test: pERK inhibition assay, NCI-H358; type: cell-based, human; conditions: Homo sapiens, 4 hours incubation
Method: (§3) This assay is to measure the ability of test compounds in inhibiting the phosphorylation of ERK, the downstream signaling of KRAS G12C in NCI-H358 cells, KRAS G12D in AGS cells, and KRAS G12V in SW620. NCI-H358 (ATCC-CRL5807) cells, AGS (ATCC-CRL-1739) cells, SW620 (ATCC-CCL-227) cells were all grown and maintained using RPMI-1640 medium (Thermo Fisher Scientific) with 10% fetal bovine serum and 1% penicillin/streptomycin. On the day prior to compound addition, cells were plated in tissue culture-treated 96 well plates (Corning-3699) at a density of 30,000 cell/well, 20,000 cell/well, 30,000 cell/well for NCI-H358, AGS and SW620 respectively, and allowed for attachment overnight. Diluted compounds were then added in a final concentration of 0.5% DMSO. After 4 hours of incubation, the medium was removed, 100 μL of 4% formaldehyde was added, and the assay plates were incubated at room temperature for 20 minutes. The plates were then washed once with phosphate buffered saline (PBS), and permeabilized with 100 μL of chilled methanol for 10 minutes. Non-specific antibody binding to the plates was blocked using 50 μL 1×BSA blocking buffer (Thermo-37520, 10-fold dilution by Phosphate-Buffered Saline Tween (PBST) for at least 1 hour at room temperature. The amount of phosphor-ERK was determined using an antibody specific for phosphorylated form of ERK. Primary antibody (pERK, CST-4370, Cell Signaling Technology) was diluted 1:300 in blocking buffer, with 50 μL aliquoted to each well, and incubated overnight at 4° C. Cells were washed five times for 5 minutes with PBST. Secondary antibody (HRP-linked anti-rabbit IgG, CST-7074, Cell Signaling Technology) was diluted 1:1000 in blocking buffer, and 50 μL was added to each well and incubated 1-2 hours at room temperature. Cells were washed 5 times for 5 minutes with PBST, 100 μL TMB ELISA substrate (abcam-ab171523) were added and gently shake for 20 minutes. 50 μL stop solution (abcam-ab171529) were added, and then read the signal (OD450) by EnVision. IC50 was determined by fitting a 4-parameter sigmoidal concentration response model.

[5] = target: KRAS G12D binding to BRAF (Homo sapiens (Human), UniProt P01116+P62937, G12D); test: KRAS-BRAF with CYPA (50 nM) interaction assay (TR-FRET), G12D; conditions: GMPPNP loaded 6His-KRAS, GST-BRAF RBD
Sequence of KRAS G12D binding to BRAF (P01116-2 other isoform, or with tags, fused parts or gaps G12D): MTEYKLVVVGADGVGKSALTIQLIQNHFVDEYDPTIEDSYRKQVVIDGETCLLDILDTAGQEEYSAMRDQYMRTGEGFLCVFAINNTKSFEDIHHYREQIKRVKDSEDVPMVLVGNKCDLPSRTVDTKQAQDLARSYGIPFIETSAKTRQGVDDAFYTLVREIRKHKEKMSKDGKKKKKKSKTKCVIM
Sequence of KRAS G12D binding to BRAF (P62937 whole entry): as the sequence (P62937 whole entry) above
Method: as §2

[6] = tested on: KRAS G12V in SW620; test: pERK inhibition assay, SW620; type: cell-based, human; conditions: Homo sapiens, SW-620, SW620 cells, 4 hours incubation
Method: as §3

[7] = target: KRAS G12C-BRAF complex (Homo sapiens (Human), UniProt P01116+P62937, G12C); test: KRAS-BRAF with CYPA (50 nM) interaction assay (TR-FRET), G12C; type: binding; conditions: GMPPNP loaded 6His-KRAS, GST-BRAF RBD
Sequence of KRAS G12C-BRAF complex (P01116-2 other isoform, or with tags, fused parts or gaps G12C): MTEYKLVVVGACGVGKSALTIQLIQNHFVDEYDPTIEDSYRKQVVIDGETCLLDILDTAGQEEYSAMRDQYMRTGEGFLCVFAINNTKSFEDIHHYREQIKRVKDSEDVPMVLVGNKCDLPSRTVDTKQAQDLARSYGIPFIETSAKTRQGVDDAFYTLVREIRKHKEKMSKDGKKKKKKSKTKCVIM
Sequence of KRAS G12C-BRAF complex (P62937 whole entry): as the sequence (P62937 whole entry) above
Method: as §2

[8] = tested on: AGS cells; test: Cell viability assay, AGS; type: cell-based, human; conditions: Homo sapiens, 72 hours, Cell Counting Kit-8, read-out: G12D IC50
Method: as §1

[9] = tested on: KRAS G12D in AGS cells; test: pERK inhibition assay, AGS; type: cell-based, human; conditions: Homo sapiens, 4 hours incubation
Method: as §3

SMILES	IC50 [1] [nM]	IC50 [2] [nM]	IC50 [3] [nM]	IC50 [4] [nM]	IC50 [5] [nM]	IC50 [6] [nM]	IC50 [7] [nM]	IC50 [8] [nM]	IC50 [9] [nM]
CCn1c(-c2cccnc2[C@H](C)OC)c2c3cc(ccc31)-c1cc(O)cc(c1)C[C@H](NC(=O)[C@H](C(C)C)N(C)C(=O)[C@H]1CCN(C(=O)/C=C/n3cncn3)C1)C(=O)N1CCC[C@H](N1)C(=O)OCC(C)(C)C2 (atropisomer, axis not shown; (M)) [Example 9, (3S)-N-[(1S)-1-[[(8S,14S)-22-ethyl-4-hydroxy-(21M)-21-[2-[(1S)-1-methoxyethyl]-3-pyridyl]-18,18-dimethyl-9,15-dioxo-16-oxa-10,22,28-triazapentacyclo[18.5.2.12,6.110,14.023,27]nonacosa-1(26),2,4,6(29),20,23(27),24-heptaen-8-yl]carbamoyl]-2-methyl-propyl]-N-methyl-1-[(E)-3-(1,2,4-triazol-1-yl)prop-2-enoyl]pyrrolidine-3-carboxamide]	853	29	103	229	1930	742	38	–	–
CCn1c(-c2cc(N3CCN(CC(F)(F)F)CC3)cnc2[C@H](C)OC)c2c3cc(ccc31)-c1csc(n1)C[C@H](NC(=O)[C@H](C(C)C)N(C)C(=O)[C@H]1CCN(C(=O)[C@H](F)Cl)C1)C(=O)N1CCC[C@H](N1)C(=O)OCC(C)(C)C2 (atropisomer, axis not shown; (M)) [Example 26, (3S)-1-[(2R)-2-chloro-2-fluoro-acetyl]-N-[(1S)-1-[[(7S,13S)-21-ethyl-(20M)-20-[2-[(1S)-1-methoxyethyl]-5-[4-(2,2,2-trifluoroethyl)piperazin-1-yl]-3-pyridyl]-17,17-dimethyl-8,14-dioxo-15-oxa-4-thia-9,21,27,28-tetrazapentacyclo[17.5.2.12,5.19,13.022,26]octacosa-1(25),2,5(28),19,22(26),23-hexaen-7-yl]carbamoyl]-2-methyl-propyl]-N-methyl-pyrrolidine-3-carboxamide]	45	< 0.6	200	1	2720	13	36	140	35
CO[C@@H](C)c1ncc(N2CCN(C)CC2)cc1-c1c2c3cc(ccc3n1CC(F)(F)F)-c1csc(n1)C[C@H](NC(=O)[C@H](C(C)C)N(C)C(=O)C1(F)CCN(C(=O)[C@H](F)Cl)CC1)C(=O)N1CCC[C@H](N1)C(=O)OCC(C)(C)C2 (atropisomer, axis not shown; (M)) [Example 20, 1-[(2R)-2-chloro-2-fluoro-acetyl]-4-fluoro-N-[(1S)-1-[[(7S,13S)-(20M)-20-[2-[(1S)-1-methoxyethyl]-5-(4-methylpiperazin-1-yl)-3-pyridyl]-17,17-dimethyl-8,14-dioxo-21-(2,2,2-trifluoroethyl)-15-oxa-4-thia-9,21,27,28-tetrazapentacyclo[17.5.2.12,5.19,13.022,26]octacosa-1(25),2,5(28),19,22(26),23-hexaen-7-yl]carbamoyl]-2-methyl-propyl]-N-methyl-piperidine-4-carboxamide]	5	0.2	1170	1	415	3	11	18	11
CCn1c(-c2cccnc2[C@H](C)OC)c2c3cc(ccc31)-c1cc(O)cc(c1)C[C@H](NC(=O)[C@H](C(C)C)N(C)C(=O)C1CC(C=O)C1)C(=O)N1CCC[C@H](N1)C(=O)OCC(C)(C)C2 (stereo partly drawn) [Example 3, N-[(1S)-1-[[(8S,14S)-22-ethyl-4-hydroxy-(21M)-21-[2-[(1S)-1-methoxyethyl]-3-pyridyl]-18,18-dimethyl-9,15-dioxo-16-oxa-10,22,28-triazapentacyclo[18.5.2.12,6.110,14.023,27]nonacosa-1(26),2,4,6(29),20,23(27),24-heptaen-8-yl]carbamoyl]-2-methyl-propyl]-3-formyl-N-methyl-cyclobutanecarboxamide]	684	41	110	9	1030	245	1	1300	683
